According to ChEMBL document CHEMBL1909294, “Translating clinical findings into knowledge in drug safety evaluation--drug induced liver injury prediction system (DILIps)” (PLoS Comput Biol, 2011):

How the values were obtained:
[1] = tested on: Hepatotoxicity;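 as to HepSE bilirubinemia: bilirubinemia hepatic side effect score drawn from the DILIps training data, a prediction system for drug-induced liver injury; call rule not given here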;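 as to HepSE cholecystitis: Cholecystitis-related hepatic side effect score drawn from the DILIps (drug-induced liver injury prediction) training data set; call rule not given here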;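 as to HepSE cholelithiasis: hepatic side effect score for cholelithiasis, drawn from the DILIps training data for predicting drug-induced liver injury; call rule not given here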;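 as to HepSE cirrhosis: cirrhosis hepatic side effect score taken from the DILIps (drug-induced liver injury prediction) training set; call rule not given here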;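 as to HepSE elevated liver function tests: hepatic side effect score for raised liver function tests, as recorded in the DILIps training set used for predicting drug-induced liver injury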; as to HepSE hepatic failure: call rule not given here;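 as to HepSE hepatomegaly: hepatic side effect score for hepatomegaly, taken from the training set of the DILIps drug-induced liver injury prediction system; call rule not given here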
[2] = tested on: Hepatotoxicity; remark: listed apart in the source;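 as to HepSE bilirubinemia: bilirubinemia hepatic side effect score drawn from the DILIps training data, a prediction system for drug-induced liver injury; call rule not given here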;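 as to HepSE cholecystitis: Cholecystitis-related hepatic side effect score drawn from the DILIps (drug-induced liver injury prediction) training data set; call rule not given here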;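 as to HepSE cholelithiasis: hepatic side effect score for cholelithiasis, drawn from the DILIps training data for predicting drug-induced liver injury; call rule not given here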;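 as to HepSE cirrhosis: cirrhosis hepatic side effect score taken from the DILIps (drug-induced liver injury prediction) training set; call rule not given here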;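 as to HepSE elevated liver function tests: hepatic side effect score for raised liver function tests, as recorded in the DILIps training set used for predicting drug-induced liver injury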; as to HepSE hepatic failure: call rule not given here
[3] = tested on: Hepatotoxicity; remark: listed apart in the source;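 as to HepSE bilirubinemia: bilirubinemia hepatic side effect score drawn from the DILIps training data, a prediction system for drug-induced liver injury; call rule not given here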;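 as to HepSE cholecystitis: Cholecystitis-related hepatic side effect score drawn from the DILIps (drug-induced liver injury prediction) training data set; call rule not given here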;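 as to HepSE cholelithiasis: hepatic side effect score for cholelithiasis, drawn from the DILIps training data for predicting drug-induced liver injury; call rule not given here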;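 as to HepSE cirrhosis: cirrhosis hepatic side effect score taken from the DILIps (drug-induced liver injury prediction) training set; call rule not given here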;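 as to HepSE elevated liver function tests: hepatic side effect score for raised liver function tests, as recorded in the DILIps training set used for predicting drug-induced liver injury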; as to HepSE hepatic failure: call rule not given here
[4] = tested on: Hepatotoxicity; remark: listed apart in the source;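 as to HepSE bilirubinemia: bilirubinemia hepatic side effect score drawn from the DILIps training data, a prediction system for drug-induced liver injury; call rule not given here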;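 as to HepSE cholecystitis: Cholecystitis-related hepatic side effect score drawn from the DILIps (drug-induced liver injury prediction) training data set; call rule not given here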;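 as to HepSE cholelithiasis: hepatic side effect score for cholelithiasis, drawn from the DILIps training data for predicting drug-induced liver injury; call rule not given here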;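 as to HepSE cirrhosis: cirrhosis hepatic side effect score taken from the DILIps (drug-induced liver injury prediction) training set; call rule not given here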;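 as to HepSE elevated liver function tests: hepatic side effect score for raised liver function tests, as recorded in the DILIps training set used for predicting drug-induced liver injury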; as to HepSE hepatic failure: call rule not given here
[5] = tested on: Hepatotoxicity; remark: listed apart in the source; as to HepSE hepatic failure: call rule not given here
[6] = tested on: Hepatotoxicity; remark: listed apart in the source; as to HepSE hepatic failure: call rule not given here
[7] = tested on: Hepatotoxicity; remark: listed apart in the source
[8] = tested on: Hepatotoxicity; remark: listed apart in the source
[9] = tested on: Hepatotoxicity; remark: listed apart in the source
[10] = tested on: Hepatotoxicity; remark: listed apart in the source
[11] = tested on: Hepatotoxicity; remark: listed apart in the source
[12] = tested on: Hepatotoxicity; remark: listed apart in the source
[13] = tested on: Hepatotoxicity; remark: listed apart in the source
[14] = tested on: Hepatotoxicity; remark: listed apart in the source

Compound	HepSE_bilirubinemia [1]	HepSE_cholecystitis [2]	HepSE_cholelithiasis [3]	HepSE_cirrhosis [4]	HepSE_elevated liver function tests [5]	HepSE_hepatic failure [6]	HepSE_hepatic necrosis [7]	HepSE_hepatitis [8]	HepSE_hepatomegaly [9]	HepSE_jaundice [10]	HepSE_liver disease [11]	HepSE_liver fatty [12]	HepSE_liver function tests abnormal [13]	HepSE_Combined Scores [14]
C=CC1=C(C(=O)O)N2C(=O)[C@@H](NC(=O)/C(=N\O)c3csc(N)n3)[C@H]2SC1	0	0	0	0	0	1	0	1	0	1	0	0	0	3
VITAMIN B12	0	0	0	0	0	0	0	0	0	0	0	0	0	0
O=S(=O)([O-])CCS.[Na+] [MESNA]	0	0	0	0	0	0	0	0	0	0	0	0	0	0
OC[C@H]1O[C@@H](O)[C@@H](F)[C@@H](O)[C@@H]1O	0	0	0	0	0	0	0	0	0	0	0	0	0	0
CC(C)(O/N=C(\C(=O)N[C@@H]1C(=O)N2C(C(=O)[O-])=C(C[n+]3ccccc3)CS[C@H]12)c1csc(N)n1)C(=O)O [CEFTAZIDIME]	1	0	0	0	0	0	0	0	0	1	0	0	0	2
CCC(=O)C(CC(C)N(C)C)(c1ccccc1)c1ccccc1 (stereo unspecified) [METHADONE]	0	0	0	0	0	0	0	0	0	0	0	0	0	0
II [IODINE]	0	0	0	0	0	0	0	1	0	0	0	0	0	1
CC(=O)N1CCN(c2ccc(OCC3COC(Cn4ccnc4)(c4ccc(Cl)cc4Cl)O3)cc2)CC1 (stereo unspecified) [KETOCONAZOLE]	0	0	0	0	0	0	0	0	0	0	0	0	0	0
CN(C)CCOC(c1ccc(Cl)cc1)c1ccccn1 (stereo unspecified) [CARBINOXAMINE]	0	0	0	0	0	0	0	0	0	0	0	0	0	0
